# Test results published in US4935438A, “Dopamine-β-hydroxylase inhibitors” (SmithKline Beckman Corporation, priority 1987, dated 1990).
# Assays:
# DBH = target: T1, DBH (Homo sapiens, UniProt P09172); conditions: cited from earlier work; for mode of DBH inhibition: literature; for DBH inhibition: literature report
# T1 sequence (P09172 1-617): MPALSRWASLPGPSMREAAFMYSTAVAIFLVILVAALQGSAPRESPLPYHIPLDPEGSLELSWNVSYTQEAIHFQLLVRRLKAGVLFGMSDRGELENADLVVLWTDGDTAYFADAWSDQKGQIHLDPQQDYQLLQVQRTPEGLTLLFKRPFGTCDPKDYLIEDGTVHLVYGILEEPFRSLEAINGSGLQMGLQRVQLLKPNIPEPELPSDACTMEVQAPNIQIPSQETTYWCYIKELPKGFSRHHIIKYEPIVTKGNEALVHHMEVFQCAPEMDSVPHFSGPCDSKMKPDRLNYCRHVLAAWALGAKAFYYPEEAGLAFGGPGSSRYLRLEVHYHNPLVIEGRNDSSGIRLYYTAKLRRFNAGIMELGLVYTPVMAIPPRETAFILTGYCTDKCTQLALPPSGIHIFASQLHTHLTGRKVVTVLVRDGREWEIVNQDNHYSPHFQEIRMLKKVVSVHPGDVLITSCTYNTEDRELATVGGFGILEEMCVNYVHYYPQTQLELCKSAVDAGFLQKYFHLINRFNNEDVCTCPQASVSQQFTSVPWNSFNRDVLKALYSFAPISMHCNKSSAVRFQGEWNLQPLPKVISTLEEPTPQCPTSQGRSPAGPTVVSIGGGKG
# [1] = system: Spontaneously hypertensive rats; assay: mean arterial blood pressure in spontaneously hypertensive rats; assay type: in vivo, rat; conditions: 50 mg/kg intraperitoneally, vs vehicle treated controls
# Description: Spontaneously hypertensive rats were treated with 2-(carboxymethylthio)-1-(3,5-difluorobenzyl)imidazole at a dose of 50 mg/kg intraperitoneally, and mean arterial blood pressure was monitored for four hours using an indwelling cannula in the femoral artery. […] The maximal blood pressure reduction was approximately 43 mmHg.
compound,measurement,setting,value
NOCc1ccccc1 [Benzyloxyamine],mode of DBH inhibition,DBH,apparently act as competitive inhibitors
"CCCCc1ccc(C(N)=O)nc1 [Bupicomide, 5(n-butyl)picolinamine]",DBH inhibition,DBH,DBH inhibitor
O=C(O)c1ccc(CCCCCl)cn1 [5-(4-chlorobutyl) picolinic acid],DBH inhibition,DBH,inhibit DBH
"O=C(O)CSc1nccn1Cc1cc(F)cc(F)c1 [2-(Carboxymethylthio)-1-(3,5-difluorobenzyl)imidazole]",maximal blood pressure reduction,[1]; monitored for four hours,approximately 43 mmHg
same,time blood pressure remained significantly reduced,[1]; monitored for four hours,4 h
same,time to significant blood pressure reductions following treatment,[1],≤ 30 min
"O=C(O)c1ccc(CCC(Br)CBr)cn1 (stereo not drawn) [5-(3,4-dibromobutyl)picolinic acid]",DBH inhibition,DBH,DBH inhibitors
NNCc1ccccc1 [benzylhydrazine],mode of DBH inhibition,DBH,apparently act as competitive inhibitors
CN(C)C(=S)SCc1ccc(C(=O)O)nc1 [5-(dimethyldithiocarbamoylmethyl)picolinic acid],DBH inhibition,DBH,DBH inhibitors
